Source: patent publication US9029414B2, “Triterpenoid compounds and methods of use thereof” (Biotechnology Research Corporation, priority 2008, dated 2015)

What was measured:
EP4 receptor = EP4 receptor (Homo sapiens, UniProt P35408); test: Radioligand competition binding assay, EP4; conditions: EP4, target PGE2; compound at 10 μM in duplicate; read-out: % inhibition of control specific binding
Description: DA001 was further evaluated against 32 receptor binding assays. Radioligand competition assays were conducted whereby DA001 was tested at one concentration (10 uM) in duplicate. […] It could compete with the radioligand [^3H] PGE2 binding at the EP1 and EP4 receptors, and weakly competed with the EP2 and FP receptors.
To determine the targets of DA compounds, the compound was assessed in binding assays for the family of prostanoid receptors. Both compounds were tested at a single concentration (10 μM) in duplicate. DA001 and DA021 inhibit the ligand binding of prostaglandin E2 receptors EP1, EP2 and EP4 and moderately to prostaglandin (PGF) to its receptor (FP), but not prostaglandin I (PGI2), thromoboxane A and prostaglandin D2 to their receptors.

[1] = tested on: C57BL/6 mice immunized with MOG; test: Experimental autoimmune encephalomyelitis (EAE) behavioral scores; type: in vivo; conditions: 100 mg/kg oral daily from day of immunization
Description: FIG. 15 illustrates that DA001 improves the behavioral scores of mice with experimental autoimmune encephalomyelitis. C57BL/6 mice were immunized subcutaneously at both sides of their hind limbs with myelin oligodendrocyte glycoprotein (MOG)/Complete Freund's Adjuvant (CFA) kit (Hooke Laboratories) and performed as indicated in the manufacturer's instruction. Albumin/CFA kit (Hooke Laboratories) were used as an immunization control. Oral administration of DA001 at 100 mg/kg was given daily starting from the day of immunization. The vehicle (water) was given to mice injected with MOG or albumin daily via oral administration. Animals were weighed and monitored daily and behavioral impairment was quantified based on the clinical scale. The graph presented here is a composite of four separate EAE trials. **=p≦0.01.
FIG. 16 illustrates that DA002 improves the behavioral scores of mice with experimental autoimmune encephalomyelitis. C57BL/6 mice were immunized subcutaneously at both sides of their hind limbs with myelin oligodendrocyte glycoprotein (MOG)/Complete Freund's Adjuvant (CFA) kit (Hooke Laboratories) and performed as indicated in the manufacturer's instruction. […] Animals were weighed and monitored daily and behavioral impairment was quantified based on the clinical scale. *=p≦0.05.
C57BL/6 mice were immunized subcutaneously at both sides of their hind limbs with myelin oligodendrocyte glycoprotein (MOG)/Complete Freund's Adjuvant (CFA) kit (Hooke Laboratories) and performed as in manufacturer's instruction. […] Animals were weighed and monitored daily and behavioral impairment was quantified based on the clinical scale. […]
On day 0, six-week old male C57BL/6 mice (Hong Kong University of Science and Technology, Animal Care facility) were immunized with 100 μg of myelin oligodendrocyte glycoprotein peptide (MOG35-55)/complete Freund's Adjuvant (CFA) emulsion kit (Hooke Laboratories) was injected subcutaneously at both sides of the tail base. […] The animals were also weighed and the neurological impairment was quantified daily based on the previously published criteria. […]

cortical neurons = test: Cortical neuron survival assay against glutamate excitotoxicity (LDH); type: cell-based, Sprague-Dawley rats; conditions: 30 μM 24 hrs, glutamate 10-200 μM 20 min; at high concentrations of glutamate
Description: Hippocampal neurons/cortical neurons were prepared from embryonic day 18 Sprague-Dawley rats. After the cortices had been removed from the brain, isolated cells were plated onto Poly d-Lysine (PDL) (P0899, Sigma)-coated 48 well plates (150687, NUNC) at a density of 2×10^5 cell per well using Neurobasal Medium (NB) (21103-049, Gibco) with B27 supplement (17504-044, Gibco), penicillin/streptomycin (15140, Gibco) and 1 mM L-glutamine (25030, Gibco). The cell culture was incubated at 37° C. in a humidified atmosphere of 5% CO2 in air. Medium was changed to growth medium (Neurobasal Medium with penicillin/streptomycin and B27 supplement) after 3 hours. Half medium was changed with growth medium every 2-3 days to maintain the cells until day 10 in vitro (DIV 10). Serial dilutions of samples were prepared in growth medium and DMSO was used as vehicle control. For pre-treating assay, half of the medium was removed from wells, and equal amount of diluted samples were replaced. Cells were then incubated for 2 hours at 37° C. in a humidified atmosphere of 5% CO2 in air. […] Afterwards, cells were incubated in growth medium for 18-24 hours and detected with Cytotoxicity Detection Kit (1644793, Roche).
Cortical neurons were pre-treated with DA021 or DA034 and subsequently subjected to varying concentrations of glutamate (10-200 μM). […] LDH release into the medium was then measured.

EP4 receptor, sequence (P35408 whole entry): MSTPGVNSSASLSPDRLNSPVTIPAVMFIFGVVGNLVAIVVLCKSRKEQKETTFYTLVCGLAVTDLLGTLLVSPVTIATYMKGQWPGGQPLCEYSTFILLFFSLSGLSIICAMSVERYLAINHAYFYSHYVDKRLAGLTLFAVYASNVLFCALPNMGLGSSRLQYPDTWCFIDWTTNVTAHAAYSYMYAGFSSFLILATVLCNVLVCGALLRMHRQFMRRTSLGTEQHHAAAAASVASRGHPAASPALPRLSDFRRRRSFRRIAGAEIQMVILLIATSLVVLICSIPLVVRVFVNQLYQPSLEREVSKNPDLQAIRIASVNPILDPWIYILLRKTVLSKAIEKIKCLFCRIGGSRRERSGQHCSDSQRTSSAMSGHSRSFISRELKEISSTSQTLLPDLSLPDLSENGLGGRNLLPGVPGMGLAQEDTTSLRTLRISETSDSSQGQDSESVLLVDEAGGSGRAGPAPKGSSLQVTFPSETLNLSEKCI

Structure (SMILES) | inhibition at 10 µM (EP4 receptor) | EAE scores vs vehicle-treated EAE mice [1] | cell death (LDH release) vs DMSO control (cortical neurons)
C=C(C)[C@@H]1CC[C@]2(C(=O)O)CC[C@]3(C)C(CC[C@@H]4[C@@]5(C)CC[C@H](O[C@@H]6OC[C@H](O)[C@H](O)[C@H]6O[C@@H]6O[C@@H](C)[C@H](O)[C@@H](O)[C@H]6O)[C@@](C)(CO)[C@@H]5CC[C@]43C)[C@@H]12 (stereo partly drawn) [DA001, 3-O-[α-L-rhamnopyranosyl-(1→2)-α-L-arabinopyranosyl]-3,23-dihydroxy-20(29)-lupen-28-oic acid] | 49% | marked decrease in EAE scores | 
C=C(C)[C@@H]1CC[C@]2(/C=N/O)CC[C@]3(C)C(CCC4[C@@]5(C)CCC(=O)[C@@](C)(CO)[C@@H]5CC[C@]43C)C12 (stereo partly drawn) [DA021] | 36% | marked decrease in the EAE scores | significant reduction in cell death
CC(=O)OC[C@]12CC[C@@H](C3(C)CO3)C1C1CCC3[C@@]4(C)CC[C@H](O)[C@@](C)(CO)[C@@H]4CC[C@@]3(C)[C@]1(C)CC2 (stereo partly drawn) [DA034] |  |  | significant reduction in cell death
